Patent US20090264433A1, “Compounds, Compositions and Methods Comprising Triazine Derivatives” (Institute for OneWorld Health, priority 2008, published 2009)
Where a name gives a salt, the structure may show the parent alone.

Molecular target: T1, CFTR channel in human colonic T84 cells (Homo sapiens, UniProt P13569)
T1 construct: results in the phosphorylation and opening of CFTR anion channels; host or cells: human colonic T84 cells
Assay: T84 assay (FLIPR membrane potential dye, forskolin/IBMX-stimulated CFTR)
Type: cell-based
Settings: average of at least 2 runs unless annotated n = 1
Protocol: (§1) For example, Human colonic T84 cells can be acquired from the European Collection of Cell Cultures (ECACC) and grown in standard culture conditions as described by the supplier. On the day before assay 25,000 T84 cells per well are plated into standard black walled, clear bottom 384-well assay plates in standard growth medium consisting of DMEM:F12 with 10% FBS and incubated overnight. On the day of the assay the plates are washed using a standard assay buffer (HBSS with 10 mM Hepes) and incubated for 15 minutes in serum free cell culture medium before the addition of a commercially available membrane potential sensitive fluorescent dye (FLIPR Red membrane potential dye, Molecular Devices Corporation). T84 cells are incubated with the FLIPR Red membrane potential dye for 45 minutes in the presence and absence of test compound before being transferred to a commercially available fluorescence imaging plate reader (FLIPR384, Molecular Devices Corporation). Fluorescence levels are monitored continuously every second for 150 seconds; after an initial 10 second baseline, CFTR channel activity is stimulated through the addition of 10 μM forskolin in the presence of 100 μM of the phosphodiesterase inhibitor iso-butyl-methylxanthine (IBMX). Addition of the forskolin leads to the activation of intracellular adenylyl cylase 1, elevating cAMP levels and results in the phosphorylation and opening of CFTR anion channels. CFTR channel opening causes chloride ion efflux and subsequent depolarization of the cells, which is measured by an increase in fluorescence. CFTR inhibitor compounds prevent cell depolarization and the associated increase in fluorescence.
as §1, with “Human colonic” for “For example, Human colonic”, “T84 cells are acquired from” for “T84 cells can be acquired from”, “(ECACC) and are grown in” for “(ECACC) and grown in”

T1 sequence (P13569 whole entry): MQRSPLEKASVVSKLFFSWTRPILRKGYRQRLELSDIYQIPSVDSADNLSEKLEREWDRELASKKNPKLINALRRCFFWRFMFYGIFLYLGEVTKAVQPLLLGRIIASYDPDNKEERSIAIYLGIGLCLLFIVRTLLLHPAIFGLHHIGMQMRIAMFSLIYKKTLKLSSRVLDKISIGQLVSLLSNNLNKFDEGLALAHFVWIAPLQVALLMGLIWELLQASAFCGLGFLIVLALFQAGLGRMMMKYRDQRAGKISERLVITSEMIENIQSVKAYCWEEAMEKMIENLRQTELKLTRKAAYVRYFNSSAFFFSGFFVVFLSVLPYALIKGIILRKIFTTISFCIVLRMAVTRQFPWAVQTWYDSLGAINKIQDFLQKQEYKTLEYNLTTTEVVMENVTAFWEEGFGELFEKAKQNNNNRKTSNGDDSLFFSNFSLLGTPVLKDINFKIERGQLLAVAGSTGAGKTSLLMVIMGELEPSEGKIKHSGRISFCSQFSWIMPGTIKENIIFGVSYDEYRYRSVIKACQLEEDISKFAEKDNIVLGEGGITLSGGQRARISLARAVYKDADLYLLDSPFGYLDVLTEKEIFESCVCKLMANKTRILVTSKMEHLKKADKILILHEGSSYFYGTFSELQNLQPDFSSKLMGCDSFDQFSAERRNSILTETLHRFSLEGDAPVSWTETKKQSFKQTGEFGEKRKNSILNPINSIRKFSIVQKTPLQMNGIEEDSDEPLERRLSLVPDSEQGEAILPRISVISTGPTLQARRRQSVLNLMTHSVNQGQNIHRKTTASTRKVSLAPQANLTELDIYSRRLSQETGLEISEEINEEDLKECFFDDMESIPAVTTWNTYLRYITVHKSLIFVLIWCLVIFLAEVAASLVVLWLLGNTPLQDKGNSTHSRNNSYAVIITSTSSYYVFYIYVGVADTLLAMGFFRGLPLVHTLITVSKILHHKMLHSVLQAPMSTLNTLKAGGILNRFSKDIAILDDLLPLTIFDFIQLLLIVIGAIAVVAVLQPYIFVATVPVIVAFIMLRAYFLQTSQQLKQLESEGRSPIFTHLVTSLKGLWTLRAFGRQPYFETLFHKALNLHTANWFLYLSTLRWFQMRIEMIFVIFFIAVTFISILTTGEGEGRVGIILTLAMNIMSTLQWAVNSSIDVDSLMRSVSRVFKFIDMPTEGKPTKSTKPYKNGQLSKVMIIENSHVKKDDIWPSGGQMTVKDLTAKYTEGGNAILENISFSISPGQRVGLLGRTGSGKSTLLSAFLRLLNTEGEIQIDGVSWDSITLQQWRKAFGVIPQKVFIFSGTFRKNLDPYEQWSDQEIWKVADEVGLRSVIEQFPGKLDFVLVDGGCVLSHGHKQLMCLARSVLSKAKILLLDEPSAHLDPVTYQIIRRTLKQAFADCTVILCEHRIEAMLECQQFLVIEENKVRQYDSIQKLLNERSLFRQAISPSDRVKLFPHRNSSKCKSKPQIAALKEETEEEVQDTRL

Row | SMILES | IC50
1 | CN(C)CCCOc1cccc(CN(C)Cc2ccc(COc3ncc(-c4cc(Cl)c(O)c(Cl)c4)nn3)cc2)c1 [Compound 204, 2,6-dichloro-4-(3-(4-(((3-(3-(dimethylamino)propoxy)benzyl)(methyl)amino)methyl)benzyl-oxy)-1,2,4-triazin-6-yl)phenol] | 2.43 µM
2 | Oc1c(Cl)cc(-c2cnc(OCc3ccc(CNCc4cccc(Cl)c4Cl)cc3)nn2)cc1Cl [Compound 141, 2,6-dichloro-4-(3-(4-((2,3 —dichlorobenzylamino)methyl)benzyloxy)-1,2,4-triazin-6-yl)phenol] | 3.81 µM
3 | Oc1c(Cl)cc(-c2cnc(OCc3ccc(CNCc4cccc5ccccc45)cc3)nn2)cc1Cl [Compound 149, 2,6-Dichloro-4-(3-(4-((naphthalen-1-ylmethylamino)methyl)benzyloxy)-1,2,4-triazin-6-yl)phenol] | 3.9 µM
4 | Oc1c(Br)cc(-c2cnc(-c3cccc(Oc4ccccc4)c3)nn2)cc1Br [Compound 129, 2,6-dibromo-4-(3-(3-phenoxyphenyl)-1,2,4-triazin-6-yl)phenol] | 24.8 µM
5 | CCN(Cc1ccccc1)Cc1ccc(COc2ncc(-c3cc(Cl)c(O)c(Cl)c3)nn2)cc1 [Compound 192, 4-(3-(4-((benzyl(ethyl)amino)methyl)benzyloxy)-1,2,4-triazin-6-yl)-2,6-dichlorophenol] | 2.13 µM
6 | O=[N+]([O-])c1ccccc1SCc1ncc(-c2cc(Br)c(O)c(Br)c2)nn1 [Compound 131, 2,6-dibromo-4-(3-((2-nitrophenylthio)methyl)-1,2,4-triazin-6-yl)phenol] | 14.8 µM
7 | Cc1ccc(CCOc2ncc(-c3cc(Br)c(O)c(Br)c3)nn2)cc1 [Compound 98, 2,6-dibromo-4-(3-(4-methylphenethoxy)-1,2,4-triazin-6-yl)phenol] | 0.3 µM
8 | CN1CCN(CC(NCc2ccc(COc3ncc(-c4cc(Cl)c(O)c(Cl)c4)nn3)cc2)c2ccccc2)CC1 (stereo not drawn) [Compound 195, 2,6-dichloro-4-(3-(4-((2-(4-methylpiperazin-1-yl)-1-phenylethylamino)methyl)benzyloxy)-1,2,4-triazin-6-yl)phenol] | 7.47 µM
9 | Oc1c(Br)cc(-c2cnc(OCc3cccc(Br)c3)nn2)cc1Br [Compound 25, 2,6-dibromo-4-(3-(3-bromobenzyloxy)-1,2,4-triazin-6-yl)phenol] | 19.8 µM
10 | Cc1cc(Br)c(OCc2ncc(-c3cc(Br)c(O)c(Br)c3)nn2)c2c1CCC2 [Compound 46, 2,6-dibromo-4-(3-((5-bromo-7-methyl-2,3-dihydro-1H-inden-4-yloxy)methyl)-1,2,4-triazin-6-yl)phenol] | 14.3 µM
11 | Oc1c(Br)cc(-c2cnc(COc3cc(Cl)ccc3Cl)nn2)cc1Br [Compound 43, 2,6-dibromo-4-(3-((2,5-dichlorophenoxy)methyl)-1,2,4-triazin-6-yl)phenol] | 11.1 µM
12 | O=C(c1cccc(C(F)(F)F)c1)N1CCN(Cc2cc(Cl)ccc2OCc2ncc(-c3cc(Br)c(O)c(Br)c3)nn2)CC1 [Compound 126, (4-(5-chloro-2-((6-(3,5-dibromo-4-hydroxyphenyl)-1,2,4-triazin-3-yl)methoxy)benzyl)piperazin-1-yl)(3-(trifluoromethyl)phenyl)methanone] | 5.44 µM
13 | Oc1c(Br)cc(-c2cnc(OCc3cnc(Br)s3)nn2)cc1Br [Compound 118, 2,6-dibromo-4-(3-((2-bromothiazol-5-yl)methoxy)-1,2,4-triazin-6-yl)phenol] | 3.23 µM
14 | Oc1c(Br)cc(-c2cnc(OCc3ccc(F)c(F)c3)nn2)cc1Br [Compound 3, 2,6-dibromo-4-(3-(3,4-difluorobenzyloxy)-1,2,4-triazin-6-yl)phenol] | 0.48 µM
15 | Oc1c(Cl)cc(-c2cnc(NCc3ccc(Cl)c(Cl)c3)nn2)cc1Cl [Compound 133, 2,6-dichloro-4-(3-(3,4-dichlorobenzylamino)-1,2,4-triazin-6-yl)phenol, formate salt] | 23.7 µM
16 | COc1ccc(CNc2ncc(-c3cc(Cl)c(O)c(Cl)c3)nn2)cc1 [Compound 132, 2,6-dichloro-4-(3-(4-methoxybenzylamino)-1,2,4-triazin-6-yl)phenol] | 12.1 µM
17 | CN(Cc1ccc(COc2ncc(-c3cc(Cl)c(O)c(Cl)c3)nn2)cc1)Cc1ccc(-c2ccc(C(F)(F)F)cn2)cc1 [Compound 210, 2,6-dichloro-4-(3-(4-((methyl(4-(5-(trifluoromethyl)pyridin-2-yl)benzyl)amino)methyl)benzyloxy)-1,2,4-triazin-6-yl)phenol] | 6.42 µM

Row | SMILES | IC50
18 | O=C(c1ccccc1)N1CCN(Cc2ccc(COc3ncc(-c4cc(Cl)c(O)c(Cl)c4)nn3)cc2)CC1 [Compound 218, (4-(4-((6-(3,5-dichloro-4-hydroxyphenyl)-1,2,4-triazin-3-yloxy)methyl)benzyl)piperazin-1-yl)(phenyl)methanone] | 3.8 µM
19 | Oc1c(Br)cc(-c2cnc(OCc3ccc(F)cc3Cl)nn2)cc1Br [Compound 9, 2,6-dibromo-4-(3-(2-chloro-4-fluorobenzyloxy)-1,2,4-triazin-6-yl)phenol] | 0.77 µM
20 | Oc1c(Br)cc(-c2cnc(OCCc3ccc(Cl)cc3Cl)nn2)cc1Br [Compound 10, 2,6-dibromo-4-(3-(2,4-dichlorophenethoxy)-1,2,4-triazin-6-yl)phenol] | 0.66 µM
21 | Oc1c(Cl)cc(-c2cnc(OCc3ccc(CN4CCc5ccc(Br)cc5C4)cc3)nn2)cc1Cl [Compound 180] | 3.54 µM
22 | Oc1c(Cl)cc(-c2cnc(OCc3ccc(CN4CCc5ccccc5C4)cc3)nn2)cc1Cl [Compound 166] | 3.08 µM
23 | Oc1c(Br)cc(-c2cnc(OCCc3ccccc3)nn2)cc1Br [Compound 96, 2,6-dibromo-4-(3-phenethoxy-1,2,4-triazin-6-yl)phenol] | 0.47 µM
24 | CC(Oc1ncc(-c2cc(Br)c(O)c(Br)c2)nn1)c1ccc(Cl)cc1 (stereo not drawn) [Compound 11, 2,6-dibromo-4-(3-(1-(4-chlorophenyl)ethoxy)-1,2,4-triazin-6-yl)phenol] | 0.84 µM
25 | Oc1c(Cl)cc(-c2cnc(OCc3ccc(CNCc4ccncc4)cc3)nn2)cc1Cl [Compound 156, 2,6-dichloro-4-(3-(4-((pyridin-4-ylmethylamino)methyl)benzyloxy)-1,2,4-triazin-6-yl)phenol] | 15.4 µM
26 | CN(Cc1ccc(COc2ncc(-c3cc(Cl)c(O)c(Cl)c3)nn2)cc1)Cc1cccc(Cl)c1Cl [Compound 183, 2,6-dichloro-4-(3-(4-(((2,3-dichlorobenzyl)(methyl)amino)methyl)benzyloxy)-1,2,4-triazin-6-yl)phenol] | 14.6 µM
27 | Oc1c(Cl)cc(-c2cnc(NCc3cccc(Cl)c3Cl)nn2)cc1Cl [Compound 121, 2,6-Dichloro-4-(3-(2,3-dichlorobenzylamino)-1,2,4-triazin-6-yl)phenol] | 13.1 µM
28 | O=Cc1ccc(COc2ncc(-c3cc(Cl)c(O)c(Cl)c3)nn2)cc1 [Compound 142, 4-((6-(3,5-dichloro-4-hydroxyphenyl)-1,2,4-triazin-3-yloxy)methyl)benzaldehyde] | 10.7 µM
29 | Oc1c(Cl)cc(-c2cnc(NCc3ccc(Cl)cc3Cl)nn2)cc1Cl [Compound 134, 2,6-dichloro-4-(3-(2,4-dichlorobenzylamino)-1,2,4-triazin-6-yl)phenol, formate salt] | 9.65 µM
30 | O=C(c1ccco1)N1CCN(Cc2ccc(COc3ncc(-c4cc(Cl)c(O)c(Cl)c4)nn3)cc2)CC1 [Compound 217, (4-(4-((6-(3,5-dichloro-4-hydroxyphenyl)-1,2,4-triazin-3-yloxy)methyl)benzyl)piperazin-1-yl)(furan-2-yl)methanone] | 4.47 µM
31 | CC(C)(C)OC(=O)N1CCN(Cc2ccc(COc3ncc(-c4cc(Cl)c(O)c(Cl)c4)nn3)cc2)CC1 [Compound 145, tert-butyl 4-(4-((6-(3,5-dichloro-4-hydroxyphenyl)-1,2,4-triazin-3-yloxy)methyl)benzyl)piperazine1-carboxylate, ammonium salt] | 1.55 µM
32 | Oc1c(Cl)cc(-c2cnc(OCc3ccc(CN4CCN(c5ccc(Cl)cc5Cl)CC4)cc3)nn2)cc1Cl [Compound 150, 2,6-dichloro-4-(3-(4-((4-(2,4-dichlorophenyl)piperazin-1-yl)methyl)benzyloxy)-1,2,4-triazin-6-yl)phenol] | 2.01 µM
33 | C=CCc1ccccc1OCc1ncc(-c2cc(Br)c(O)c(Br)c2)nn1 [Compound 44, 4-(3-((2-allylphenoxy)methyl)-1,2,4-triazin-6-yl)-2,6-dibromophenol] | 12.7 µM
